This data set deals with Human lung epithelial cell line and lung cancer cell lines. The data set is described as follows: cell cultivation in TMGG (tolerance). The format is cell-based. The following applies: cultivated in 0.01˜3.0M TMGG with all necessary supplements, up to 48 hours. Here is the method:
Human lung epithelial cell line and lung cancer cell lines were purchased from ATCC and cultivated according to manufacturer's protocols at 37° C. under 5% CO2. Cells were passaged at about 50%-70% confluence by exposing the cells to trypsin/EDTA for about 1 min and then rinsing two times in HBSS containing trypsin inhibitor. The detached cells were replated at 1:5 dilutions in fresh EpiLife medium with HKGS supplements. For miRNA transfection, pri-/pre-miR-302 prepared from Example 1 was dissolved in 0.01˜5.0M, preferably 0.1˜2.0M, of TMGG solution at a desired concentration up to 5 mg/ml and then directly applied to cell culture medium based on the miRNA amount needed. For example, to deliver […] pri-/pre-miR-302, we would need to add 40 μl of the TMGG-dissolved pri-/pre-miR-302 (at 5 mg/ml) into the cell culture medium and then mix well with the cells.

Consider trimethylglycylglycerins [TMGG], for which the “adverse effect on cultivated cells” value is on record as “not showing any adverse effect”.

The record behind these values is patent publication US11326164B2, “Trimethylglycylglycerin compositions and their use in developing anti-cancer drugs and RNA vaccines” (WJWU & LYNN Institute for Stem Cell Research, priority 2019, dated 2022).
